#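 96-well plates; 48 h exposure; 5 concentrations. Endpoints by linear interpolation between flanking doses. Not reached: highest tested concentration assigned. GI50 = concentration required for 50% inhibition of growth. Definition used: TGI = concentration required for complete inhibition of growth.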
# Experiments:
# Test in all cases: inhibition of tumour cell growth, NCI panel, 48 h
# SK-MEL-2 melanoma = system: SK-MEL-2 melanoma
# SR leukemia = system: SR leukemia
# U251 CNS = system: U251 CNS
# MOLT-4 leukemia = system: MOLT-4 leukemia
# LOX IMVI melanoma = system: LOX IMVI melanoma
# NCI-H23 lung = system: NCI-H23 lung
# HL-60(TB) leukemia = system: HL-60(TB) leukemia
# CAKI-1 renal = system: CAKI-1 renal
# ACHN renal = system: ACHN renal
# HCC-2998 colon = system: HCC-2998 colon
Compound,TGI (SK-MEL-2 melanoma),TGI (SR leukemia),TGI (U251 CNS),TGI (MOLT-4 leukemia),TGI (LOX IMVI melanoma),TGI (NCI-H23 lung),TGI (HL-60(TB) leukemia),TGI (CAKI-1 renal),TGI (ACHN renal),TGI (HCC-2998 colon),GI50 (SK-MEL-2 melanoma),GI50 (SR leukemia),GI50 (U251 CNS),GI50 (MOLT-4 leukemia),GI50 (LOX IMVI melanoma),GI50 (NCI-H23 lung),GI50 (HL-60(TB) leukemia),GI50 (CAKI-1 renal),GI50 (HCC-2998 colon),GI50 (ACHN renal)
OCC12C3C4C5C3C1C5C42 (stereo not given),> 100 µM,> 100 µM,> 100 µM,> 100 µM,> 100 µM,> 100 µM,> 100 µM,> 100 µM,> 100 µM,–,–,–,–,–,–,–,–,–,–,–
O=C(NC1CCCCC1)NS(=O)(=O)c1ccc2c(c1)CCC2,> 100 µM,> 100 µM,> 100 µM,> 100 µM,> 100 µM,> 100 µM,> 100 µM,–,> 100 µM,> 100 µM,–,–,–,–,–,–,–,–,–,–
CCOc1ccccc1C(=O)N1CCN(c2cc(Cl)cc(Cl)c2)CC1,18.4 µM,22 µM,14.3 µM,21 µM,13.1 µM,9.46 µM,0.078 µM,12.5 µM,14.6 µM,10.7 µM,1.13 µM,0.0335 µM,0.0407 µM,0.0424 µM,0.031 µM,0.0491 µM,0.0254 µM,0.0257 µM,0.0381 µM,0.051 µM
O=S(=O)(c1ccc(Cl)cc1)C(Cl)(Cl)Cl,19.9 µM,39.7 µM,21.1 µM,> 44.3 µM,6.58 µM,17.7 µM,7.7 µM,0.879 µM,> 100 µM,5.87 µM,3.05 µM,0.486 µM,3.96 µM,0.91 µM,1.77 µM,2.69 µM,1.8 µM,0.251 µM,1.42 µM,1.43 µM
O=C1OCC2=C1C(c1ccccc1)c1cc3c(cc1N2)OCO3 (stereo not given),41.7 µM,–,> 50.1 µM,–,> 100 µM,> 100 µM,0.0573 µM,> 62.9 µM,36.4 µM,> 38.7 µM,0.494 µM,< 0.0115 µM,0.0409 µM,0.036 µM,0.042 µM,0.0449 µM,0.0214 µM,0.439 µM,0.0333 µM,0.0946 µM
COc1cc2c(cc1C1COc3cc4occc4cc3C1=O)OCO2 (stereo not given),> 100 µM,> 100 µM,> 100 µM,> 100 µM,> 100 µM,> 100 µM,–,> 100 µM,> 100 µM,> 100 µM,–,–,–,–,–,–,–,–,–,–
COc1ccc(-c2cc(-c3ccc(C)cc3)nc3nc(=S)[nH]c(N)c23)cc1,41 µM,55.8 µM,29.3 µM,72.3 µM,34.5 µM,60.2 µM,–,54.2 µM,62.5 µM,42.9 µM,19 µM,24.6 µM,15.2 µM,35.6 µM,17.7 µM,21.9 µM,–,23.2 µM,23.6 µM,18.8 µM
CC#CCC1CCC(OCC)=CC1=O (stereo not given),> 100 µM,> 100 µM,> 100 µM,> 100 µM,> 100 µM,> 100 µM,> 100 µM,> 100 µM,> 100 µM,–,–,–,–,–,–,–,–,–,–,–
Cc1ccc(-c2nnc(-c3nn(-c4ccccc4)c4nc5ccccc5nc34)o2)cc1,39 µM,> 100 µM,59.1 µM,> 100 µM,40.9 µM,40.6 µM,> 100 µM,26.9 µM,35.2 µM,–,–,–,–,–,–,–,–,–,–,–
O=C1NC(=O)C(N2C(=O)c3ccccc3C2=O)CC1O (stereo not given),> 100 µM,> 100 µM,> 100 µM,> 100 µM,> 100 µM,> 100 µM,> 100 µM,> 100 µM,> 100 µM,–,> 100 µM,> 100 µM,> 100 µM,> 100 µM,> 100 µM,> 100 µM,> 100 µM,> 100 µM,–,> 100 µM
O=C(O)CN1CCN(CC(=O)O)CC(=O)[O][Hg][O]C(=O)C1,29.6 µM,38.6 µM,25.7 µM,31.9 µM,26.7 µM,47.2 µM,34.7 µM,36.4 µM,34.2 µM,–,15.5 µM,14.8 µM,12.2 µM,9.02 µM,10.3 µM,21.2 µM,13.7 µM,21.5 µM,–,19.6 µM
O=C1c2ccccc2-c2cc([N+](=O)[O-])c([N+](=O)[O-])cc21,3.66 µM,0.459 µM,2.93 µM,4.36 µM,2.12 µM,3.25 µM,3.97 µM,6.17 µM,3.07 µM,–,–,–,–,–,–,–,–,–,–,–
O=C1c2cccnc2C(=O)c2c1c(C(=O)NCCCN1CCCCC1)c1ccccn21,5.17 µM,> 100 µM,3.21 µM,> 100 µM,2.03 µM,2.75 µM,–,–,2.84 µM,2.04 µM,2.05 µM,0.474 µM,1.42 µM,0.867 µM,0.49 µM,0.436 µM,–,–,0.529 µM,0.464 µM
CCOC(=O)C1=C(C)N(c2ccc(Cl)cc2)[C@]2(C#N)C(O)=C(Cl)C(Cl)=C(O)[C@]12C#N,> 100 µM,> 100 µM,> 100 µM,> 100 µM,> 100 µM,> 100 µM,> 100 µM,> 100 µM,> 100 µM,–,> 100 µM,20.6 µM,> 100 µM,> 100 µM,4.95 µM,> 100 µM,88.2 µM,38 µM,–,31.6 µM
